In PubChem BioAssay (NCI):
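Method: 48-hour compound exposure of cells in 96-well plates, five concentrations, linear interpolation of endpoints. TGI is the concentration that stops growth completely.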

How the values were obtained:
Experiment in all cases: NCI tumour cell line growth inhibition, 48 h
[1] = tested on: IGROV1 ovarian
[2] = tested on: UO-31 renal
[3] = tested on: SK-OV-3 ovarian
[4] = tested on: SR leukemia
[5] = tested on: LXFL 529 NSCLC
[6] = tested on: KM12 colon
[7] = tested on: A549 NSCLC
[8] = tested on: SF-539 CNS
[9] = tested on: NCI-H460 lung
[10] = tested on: UACC-62 melanoma
[11] = tested on: SNB-75 CNS
[12] = tested on: U251 CNS
[13] = tested on: SF-268 CNS
[14] = tested on: SNB-78 CNS
[15] = tested on: A498 renal
[16] = tested on: NCI-H522 lung
[17] = tested on: ACHN renal
[18] = tested on: TK-10 renal
[19] = tested on: OVCAR-3 ovarian
[20] = tested on: M19-MEL melanoma
[21] = tested on: HT29 colon
[22] = tested on: HCT-116 colon
[23] = tested on: HOP-92 NSCLC
[24] = tested on: OVCAR-5 ovarian
[25] = tested on: SK-MEL-28 melanoma
[26] = tested on: LOX IMVI melanoma
[27] = tested on: DMS 114 small cell lung
[28] = tested on: M14 melanoma
[29] = tested on: CAKI-1 renal
[30] = tested on: HOP-62 NSCLC
[31] = tested on: SK-MEL-2 melanoma
[32] = tested on: KM20L2 colon
[33] = tested on: HCT-15 colon
[34] = tested on: SN12C renal
[35] = tested on: SW-620 colon
[36] = tested on: SK-MEL-5 melanoma
[37] = tested on: MALME-3M melanoma
[38] = tested on: UACC-257 melanoma
[39] = tested on: HCC-2998 colon
[40] = tested on: SF-295 CNS
[41] = tested on: HL-60(TB) leukemia
[42] = tested on: MOLT-4 leukemia
[43] = tested on: RPMI-8226 leukemia
[44] = tested on: COLO 205 colon
[45] = tested on: NCI-H226 lung
[46] = tested on: XF 498 CNS
[47] = tested on: SNB-19 CNS
[48] = tested on: DMS 273 small cell lung
[49] = tested on: NCI-H23 lung
[50] = tested on: EKVX NSCLC
[51] = tested on: K-562 leukemia
[52] = tested on: CCRF-CEM leukemia
[53] = tested on: OVCAR-8 ovarian
[54] = tested on: 786-0 renal
[55] = tested on: RXF 393 renal
[56] = tested on: OVCAR-4 ovarian
[57] = tested on: DLD-1 colon

`COc1cc2c(cc1OC)C1C(=O)c3c(O)cc4c(c3OC1CO2)C=CC(C)(C)O4` (configuration not stated) gave a TGI [1] greater than 100 µM, a TGI [2] of 59.2 µM and a TGI [3] greater than 100 µM. It also gave a TGI [4] greater than 100 µM, a TGI [5] of 94 µM and a TGI [6] of 68.3 µM. For the same molecule, the TGI [7] was greater than 100 µM, the TGI [8] was greater than 100 µM and the TGI [9] was 93.1 µM. It also gave a TGI [10] of 52.3 µM, a TGI [11] of 96.4 µM and a TGI [12] of 93.2 µM. It also gave a TGI [13] greater than 100 µM, a TGI [14] greater than 100 µM and a TGI [15] greater than 100 µM. For the same molecule, the TGI [16] was 5.45 µM, the TGI [17] was greater than 100 µM and the TGI [18] was greater than 100 µM. The TGI [19] was 65.5 µM, the TGI [20] was 61.4 µM and the TGI [21] was greater than 100 µM. The TGI [22] was 70.6 µM, the TGI [23] was 74.5 µM and the TGI [24] was greater than 100 µM. It also gave a TGI [25] greater than 100 µM, a TGI [26] of 38.8 µM and a TGI [27] of 25.7 µM. The TGI [28] was 76.3 µM, the TGI [29] was greater than 100 µM and the TGI [30] was 55.6 µM. For the same molecule, the TGI [31] was 50.7 µM, the TGI [32] was 89.5 µM and the TGI [33] was greater than 100 µM. For the same molecule, the TGI [34] was greater than 100 µM, the TGI [35] was greater than 100 µM and the TGI [36] was 25.3 µM. It also gave a TGI [37] of 72.9 µM.

`O=C/C1=C/C2=Cc3ccccc3C=C(/C=C(/C=O)C1)C2` was tested, and the TGI [1] was greater than 100 µM, the TGI [2] was greater than 100 µM and the TGI [38] was greater than 100 µM. The TGI [39] was greater than 100 µM, the TGI [40] was greater than 100 µM and the TGI [5] was greater than 100 µM. The TGI [6] was greater than 100 µM, the TGI [41] was greater than 100 µM and the TGI [7] was greater than 100 µM. The TGI [8] was greater than 100 µM, the TGI [9] was greater than 100 µM and the TGI [10] was greater than 100 µM. For the same molecule, the TGI [11] was 80 µM, the TGI [12] was greater than 100 µM and the TGI [42] was 90.9 µM. For the same molecule, the TGI [13] was greater than 100 µM, the TGI [14] was greater than 100 µM and the TGI [15] was greater than 100 µM. It also gave a TGI [16] greater than 100 µM, a TGI [17] greater than 100 µM and a TGI [43] greater than 100 µM. The TGI [18] was greater than 100 µM, the TGI [19] was 98.4 µM and the TGI [44] was greater than 100 µM. It also gave a TGI [45] greater than 100 µM, a TGI [20] greater than 100 µM and a TGI [21] greater than 100 µM. It also gave a TGI [46] greater than 100 µM, a TGI [22] of 48.3 µM and a TGI [47] greater than 100 µM. For the same molecule, the TGI [23] was 87.9 µM, the TGI [24] was greater than 100 µM and the TGI [25] was greater than 100 µM. It also gave a TGI [26] greater than 100 µM, a TGI [27] greater than 100 µM and a TGI [48] greater than 100 µM. For the same molecule, the TGI [28] was greater than 100 µM, the TGI [29] was greater than 100 µM and the TGI [30] was greater than 100 µM. For the same molecule, the TGI [31] was greater than 100 µM, the TGI [49] was greater than 100 µM and the TGI [32] was greater than 100 µM. It also gave a TGI [33] greater than 100 µM, a TGI [34] greater than 100 µM and a TGI [50] greater than 100 µM. The TGI [51] was greater than 100 µM, the TGI [52] was 74.9 µM and the TGI [35] was greater than 100 µM. The TGI [53] was greater than 100 µM, the TGI [54] was greater than 100 µM and the TGI [36] was greater than 100 µM. The TGI [55] was 88.6 µM, the TGI [56] was greater than 100 µM and the TGI [57] was greater than 100 µM. The TGI [37] was greater than 100 µM.
